Structures are written as SMILES.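 Growth conditions: 96-well plates. Treatment: test compound, 48 hours, 5 concentrations. Analysis: linear interpolation between bracketing concentrations; unreached endpoints set to highest concentration. Abbreviation: GI50, concentration required for 50% inhibition of growth. TGI is the concentration that stops growth completely.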

Some test systems named below: MALME-3M melanoma; T-47D breast; A549 NSCLC; MDA-MB-435; SK-OV-3 ovarian; HCC-2998 colon; MDA-MB-231 breast; HCT-15 colon; SNB-19 CNS; KM12 colon.
What all share (assay): inhibition of tumour cell growth, NCI panel, 48 h

On to `C[C@@H]1C(=O)C[C@H]2C(C)(C)CCC[C@]2(C)[C@@]1(O)CCc1ccoc1`, for which the TGI in the test with MALME-3M melanoma, in the test with T-47D breast, in the test with A549 NSCLC, in the test with MDA-MB-435, in the test with SK-OV-3 ovarian and in the test with HCC-2998 colon was over 100 µM throughout. Further, the TGI in the test on MDA-MB-231 breast, with HCT-15 colon, in the test on SNB-19 CNS and in the test with KM12 colon was over 100 µM each time.

As to `CCOC(=O)Nc1ccc2c(c1)c(CCCCCCc1nc3ccccc3c3ccc(NC(=O)OCC)cc13)nc1ccccc12`, the TGI in the test with T-47D breast is over 100 µM; with A549 NSCLC, over 100 µM; in the test on MDA-MB-435, over 100 µM; in the test with SK-OV-3 ovarian it was 85.1 µM; in the test with HCC-2998 colon, over 100 µM; with MDA-MB-231 breast, 67.8 µM. Further, the TGI in the test on HCT-15 colon, with SNB-19 CNS and in the test on KM12 colon was over 100 µM each time.

In the case of `CC(=O)Oc1c(-c2ccccc2)sc2ccccc12`, the TGI in the test on MALME-3M melanoma is 37.2 µM; in the test on T-47D breast, 44.5 µM; in the test on A549 NSCLC, 37.9 µM; in the test with MDA-MB-435, 59 µM; in the test with HCC-2998 colon it was 32 µM; in the test on MDA-MB-231 breast it was 33.4 µM. For the same compound, the TGI in the test on HCT-15 colon is 37.1 µM; in the test on SNB-19 CNS it was over 100 µM; in the test with KM12 colon, 52.3 µM.

For `COc1cc(OC)c2c3c(OC)cc(OC)c4c(=O)c(O)c(C[C@@H](C)O)c(c5c(C[C@@H](C)O)c(O)c(=O)c1c25)c43`, the TGI was 44.5 µM in the test with T-47D breast; over 100 µM in the test with A549 NSCLC; 32.1 µM in the test on MDA-MB-435; over 100 µM in the test on SK-OV-3 ovarian; 32 µM in the test on HCC-2998 colon; 25.3 µM in the test with MDA-MB-231 breast. Moreover, the TGI in the test on HCT-15 colon is 44.4 µM; in the test with SNB-19 CNS, over 100 µM; in the test on KM12 colon, 83.2 µM.

For the compound `O=C(NC(=O)c1cc(-c2ccccc2)n[nH]1)c1ccccc1`, the TGI with T-47D breast, in the test with A549 NSCLC, in the test on MDA-MB-435, with SK-OV-3 ovarian, with HCC-2998 colon and in the test on MDA-MB-231 breast was over 100 µM in each case. Moreover, the TGI in the test on HCT-15 colon and with KM12 colon was over 100 µM in each case.

As for `O=c1ccn(C2OC(CO)C(O)C2F)c(=O)n1Cc1ccccc1` (centres undefined), the TGI with MALME-3M melanoma, with T-47D breast, in the test with A549 NSCLC, with MDA-MB-435, with MDA-MB-231 breast and with HCT-15 colon was over 100 µM each time. Further, the TGI with SNB-19 CNS and with KM12 colon was over 100 µM throughout.

Regarding `CC1CC/C(=C\c2ccc(F)cc2)C(=O)/C1=C/c1ccc(F)cc1` (centres undefined), the TGI with MALME-3M melanoma was found to be 32.8 µM; with T-47D breast, 21 µM; in the test with MDA-MB-435, 28.4 µM; with SK-OV-3 ovarian, 36.7 µM; with MDA-MB-231 breast it was 6.56 µM; with HCT-15 colon it was 5.39 µM. The TGI in the test on SNB-19 CNS worked out at 35.5 µM; with KM12 colon, 14.5 µM.

Turning to `CC(=O)Nc1ccc2[nH]c(C(=O)N3CC(CCl)c4c3cc([N+](=O)[O-])c3ccccc43)cc2c1` (centres undefined), the TGI in the test on T-47D breast is 9.92 µM; with A549 NSCLC it was 1.15 µM; with MDA-MB-435 it was over 100 µM; in the test with SK-OV-3 ovarian, over 65.1 µM; in the test on HCC-2998 colon, over 100 µM; in the test with MDA-MB-231 breast it was over 100 µM. Further, the figures for the TGI in the test with HCT-15 colon, with SNB-19 CNS and with KM12 colon were over 100 µM, over 100 µM and over 71.7 µM, respectively.

Take `COc1c(-c2nc3nc(N4CCN(C)CC4)ccc3[nH]2)cc(OC)c2c1nc(COC(C)=O)n2C`: the TGI in the test on MALME-3M melanoma, in the test on T-47D breast, in the test with A549 NSCLC, with MDA-MB-435, with SK-OV-3 ovarian and with MDA-MB-231 breast was over 100 µM each time. For the same compound, the TGI in the test on HCT-15 colon, in the test with SNB-19 CNS and with KM12 colon was over 100 µM in each case.

As for `O=C(N/N=C\c1ccc(N(CCCl)CCCl)cc1[N+](=O)[O-])c1cccnc1`, the GI50 with MALME-3M melanoma, in the test on T-47D breast, in the test with A549 NSCLC, with MDA-MB-435, with HCC-2998 colon and in the test with MDA-MB-231 breast was over 100 µM throughout. Moreover, the GI50 with HCT-15 colon, with SNB-19 CNS and in the test with KM12 colon was over 100 µM throughout. Further, the TGI in the test on MALME-3M melanoma, in the test with T-47D breast, in the test on A549 NSCLC, with MDA-MB-435, in the test with HCC-2998 colon and in the test on MDA-MB-231 breast was over 100 µM in each case. The TGI in the test on HCT-15 colon, in the test on SNB-19 CNS and with KM12 colon was over 100 µM in each case.

As for `CC(=O)NC(C)(C)C1CCC(C)=C(c2ccccc2)C1` (centres undefined), the TGI in the test on T-47D breast, in the test with A549 NSCLC, in the test on MDA-MB-435, with SK-OV-3 ovarian, in the test on HCC-2998 colon and in the test with MDA-MB-231 breast was over 100 µM each time. Moreover, the TGI in the test on HCT-15 colon, in the test on SNB-19 CNS and with KM12 colon was over 100 µM in each case.

As to `COc1ccccc1NC(=O)CC(=O)N1N=C(N2c3ccccc3Sc3ccccc32)CC1c1ccccc1` (centres undefined), the TGI with T-47D breast, in the test on A549 NSCLC, in the test with MDA-MB-435, in the test on SK-OV-3 ovarian, in the test on HCC-2998 colon and in the test with MDA-MB-231 breast was over 100 µM throughout. In addition, the TGI in the test with HCT-15 colon, in the test on SNB-19 CNS and in the test on KM12 colon was over 100 µM throughout.

In the case of `Nc1ncn2c(n1)nc1ccccc12`, the TGI in the test on MALME-3M melanoma, in the test with T-47D breast, with A549 NSCLC, in the test with MDA-MB-435, in the test with SK-OV-3 ovarian and in the test on MDA-MB-231 breast was over 100 µM in each case. Further, the TGI in the test on HCT-15 colon, in the test with SNB-19 CNS and in the test on KM12 colon was over 100 µM throughout.

(Values after PubChem BioAssay (NCI).)
